The results in this text go back to US8420696B2, “Use of low-dose ladostigil for neuroprotection” (priority 2005, dated 2013).

Assay [1] has as its target T1, butyrylcholinesterase (BuChE) (Rattus norvegicus, UniProt Q9JKC1).
T1 construct: from tissue; host or cells: cortex and hippocampus homogenates of dosed Sprague-Dawley rats
Kind of assay: Example 2: BuChE activity in cortex and hippocampus after ladostigil treatment. To be noted: chronic 1 mg/kg. It counts as in vivo, rats. As to the method: The effect of chronic ladostigil treatment on ChE activity in the cortex and hippocampus of rats was determined one week after icv STZ in 12 rats (3 treated with water and 9 with ladostigil). The effect of acute treatment with ladostigil 1 or 17 mg/kg was determined 2 hrs after drug administration. […] The brain was rapidly removed, washed with saline on ice and the cortex, hippocampus and striatum dissected out, quickly weighed and stored at −70° C. until assay. Total ChE activity in the cortex and hippocampus was measured as described in Wang et al., Gender differences in the effect of rivastigmine on brain cholinesterase activity and cognitive function in rats, Neuropharmacology (2000) 39:497-506, using the spectrophotometric method of Ellman et al., A new and rapid colorimetric determination of acetylcholinesterase activity, Biochem. Pharmacol. (1961) 7:88-95 with acetylthiocholine (Sigma Ltd) as a substrate using homogenate of 100 mg tissue in 1 ml phosphate buffer. To determine only butyrylcholinesterase (BuChE) activity the amounts of tissue/ml of buffer were increased 3-fold and butyrylthiocholine (Sigma Ltd) was used as a substrate. MAO A and B activity was measured in homogenates of striatum as described in Weinstock et al., Limited potentiation of blood pressure response to oral tyramine by brain-selective monoamine oxidase A-B inhibitor, TV-3326 in conscious rabbits, Neuropharmacology (2002) 43:999-1005.

Assay [2] has as its system rats injected icv with STZ (spatial memory). Put plainly: Morris water maze spatial memory after icv STZ. It counts as in vivo, Sprague-Dawley rats. To be noted: icv STZ + chronic ladostigil 1 mg/kg vs icv STZ only. How it is done:
Male Sprague-Dawley rats (63) weighing 320-340 g, aged 4 months, were anesthetized by an intraperitoneal injection of Equithesin 0.3 ml/kg. STZ (0.5 mg) dissolved in 2 μl artificial cerebrospinal fluid (CSF) was injected into each lateral ventricle of 45 rats. The stereotaxic co-ordinates for icv injection were: 0.9 mm posterior, 1.8 mm lateral and 3.8 mm ventral from the bregma level. Control rats (18) received a bilateral injection of 2 μl artificial CSF. STZ-injected rats (25) were given ladostigil (1 mg/kg of the hemitartrate salt/day) orally in a volume of (1 ml/kg) from one week before, until 1 or 8 weeks after icv STZ. The remaining 20 rats received 1 ml/kg water. The rats were housed two per cage with free access to food and water until the behavioral, enzymatic and cytochemical measurements were completed. […]
Group means of 3 measures in the object and place recognition tests, duration of exploration in first and second phases and discrimination index were submitted to one way ANOVA. Mean daily escape latencies for trial 1 and trial 2 in the MWM in each group were analyzed by repeated measures ANOVA for DAY and GROUP followed by Duncan's post hoc test where appropriate. Histological data were analyzed by univariate ANOVA followed by Duncan's post hoc test. […]

The next assay deals with microglia and astrocytes. Kind of assay: Example 2: microglia and astrocyte activation at cannula penetration site after icv STZ. It counts as in vivo, Sprague-Dawley rats. As to the method:
Male Sprague-Dawley rats (63) weighing 320-340 g, aged 4 months, were anesthetized by an intraperitoneal injection of Equithesin 0.3 ml/kg. STZ (0.5 mg) dissolved in 2 μl artificial cerebrospinal fluid (CSF) was injected into each lateral ventricle of 45 rats. The stereotaxic co-ordinates for icv injection were: 0.9 mm posterior, 1.8 mm lateral and 3.8 mm ventral from the bregma level. Control rats (18) received a bilateral injection of 2 μl artificial CSF. STZ-injected rats (25) were given ladostigil (1 mg/kg of the hemitartrate salt/day) orally in a volume of (1 ml/kg) from one week before, until 1 or 8 weeks after icv STZ. The remaining 20 rats received 1 ml/kg water. The rats were housed two per cage with free access to food and water until the behavioral, enzymatic and cytochemical measurements were completed.
One week after icv injection, 8 rats injected with icv CSF, 7 rats given STZ alone, and 7 treated with ladostigil were anesthetized with sodium pentobarbitone, perfused transcardially and the brains processed for immunocytochemistry. […]
Nitrotyrosine, (NT) a marker of nitrative/oxidative stress, was stained with rabbit anti-nitrotyrosine from Upstate (Lake Placid, N.Y., USA), diluted 1:100 followed by the secondary donkey anti-rabbit conjugated with horseradish peroxidase from Chemicon (Temecula, Calif., USA), was diluted 1:200. […] Images were obtained by bright field microscopy and quantitative assessments of appropriate markers were made using AnalySIS software. […]
Three distinct zones were distinguished in the vicinity of the cortical injection site after icv STZ injection containing astrocytes and microglia with differing morphology. Quantification of microglia and astrocytes in the three zones was made in sections sampled in a range of P0.2-0.8 mm from the bregma. The area of each zone containing the different types of astrocytes was measured and the percentage that each zone occupied in the wound area was calculated (Statistica software, StatSoft, USA). The classes of microglia were counted separately in each zone. […]

T1 sequence (Q9JKC1 24-597): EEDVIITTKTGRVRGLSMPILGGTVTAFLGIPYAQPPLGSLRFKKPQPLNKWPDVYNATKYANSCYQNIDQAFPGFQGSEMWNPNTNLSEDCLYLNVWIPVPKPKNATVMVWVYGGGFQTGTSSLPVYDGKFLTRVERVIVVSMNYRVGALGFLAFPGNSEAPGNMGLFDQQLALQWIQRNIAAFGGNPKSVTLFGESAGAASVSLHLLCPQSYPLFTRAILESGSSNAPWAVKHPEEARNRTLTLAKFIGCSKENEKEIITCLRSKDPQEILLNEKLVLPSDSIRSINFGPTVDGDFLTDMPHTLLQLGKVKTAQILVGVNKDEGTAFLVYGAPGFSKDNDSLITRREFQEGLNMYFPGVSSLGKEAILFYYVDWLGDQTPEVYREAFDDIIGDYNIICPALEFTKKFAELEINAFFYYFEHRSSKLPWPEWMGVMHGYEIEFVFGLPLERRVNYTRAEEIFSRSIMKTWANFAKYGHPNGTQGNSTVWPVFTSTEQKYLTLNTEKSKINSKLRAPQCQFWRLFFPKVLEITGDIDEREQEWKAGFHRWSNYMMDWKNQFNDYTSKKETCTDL

As for `C#CCN[C@@H]1CCc2ccc(OC(=O)N(C)CC)cc21` [ladostigil, R(+)-6-(N-methyl,N-ethyl-carbamoyloxy)-N′-propargyl-1-aminoindan], the “BuChE (%) inhibition” value in assay [1] (Cortex, 60 min) worked out at 16.2 ± 2.5 %; in assay [1] (Cortex, 120 min), 15.7 ± 3.2 %; in assay [1] (Hippocampus, 60 min), 7.3 ± 2.5%; in assay [1] (Hippocampus, 120 min), 5.4 ± 2.8%. Further, in assay [1], the “Inhibition of BuChE in the hippocampus” value is “no significant inhibition”. In addition, the “Inhibition of BuChE in the cortex” value in assay [1] (seven days after icv STZ, 1 or 2 hrs after the last dose) is given as 16%. Also, in assay [2], the “Escape latency in Morris water maze, trial 1, means over 5 days” value is “rats given icv STZ only had significantly higher latencies than those injected with CSF or STZ and treated with ladostigil”. Further, in the assay on microglia and astrocytes (1 mg/kg/day hemitartrate orally, seven days after icv STZ), the “Changes in microglia and astrocytes in zones i) and iii) resulting from icv STZ” value was “prevented the changes”. Also, the “Density of fibrous microglia in zone ii)” value in the assay with microglia and astrocytes (1 mg/kg/day orally, seven days after icv STZ) is on record as “no effect”. In addition, the “Scar morphology at cannula penetration site” value in the assay with microglia and astrocytes (eight weeks after icv STZ, with or without ladostigil) is given as “No differences”.
